Reference: patent US8658646B2, “Pyrrolopyrazine kinase inhibitors” (Hoffmann-LaRoche Inc., priority 2011, dated 2014)
Where “and” joins values, the source holds several entries; their conditions need not be identical. Identical values can stand only once.

Legend:
[1] = molecular target: T1, JAK3: Recombinant human kinase domain (Homo sapiens, UniProt P52333); experiment: Determination of IC50 of Janus Kinase (JAK) inhibition, radioactive end-point 33P-ATP assay, JAK3; format: biochemical; details: ATP 1.5 uM, peptide 50 uM, 20 minutes, read-out: JAK3-INHIB-DR/v1~NO ADDITIVE~Enzyme_Conc = 100
T1 construct: JAK3: Recombinant human kinase domain from Millipore (Cat #14-629) or prepared; purchased Millipore 14-629
T1 sequence (P52333 822-1111 limits assumed): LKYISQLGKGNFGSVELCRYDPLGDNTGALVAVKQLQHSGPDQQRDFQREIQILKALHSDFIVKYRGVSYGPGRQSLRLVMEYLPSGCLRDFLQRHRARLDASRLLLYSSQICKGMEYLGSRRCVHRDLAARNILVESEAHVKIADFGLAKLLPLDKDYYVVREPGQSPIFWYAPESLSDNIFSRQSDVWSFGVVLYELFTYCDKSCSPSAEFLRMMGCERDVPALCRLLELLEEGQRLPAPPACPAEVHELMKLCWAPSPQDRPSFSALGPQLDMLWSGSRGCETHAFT

[2] = molecular target: T2, recombinant human SYK360-635 (Homo sapiens, UniProt P43405); experiment: Determination of IC50 of Spleen Tyrosine Kinase (SYK) inhibition, 33P ATP filtration assay; format: biochemical; details: SYK aa 360-635 0.5 nM; ATP 20 μM, peptide 5 μM, 0.1% BSA; read-out: SYK_ENZYME_FILTRATION/v1, BSA
T2 construct: made in house

Structure (SMILES)	IC50 [1] [nM]	IC50 [2]
CC(CCCC(C)(C)O)NC(=O)c1c[nH]c2ncc(-c3nn(C)c4cc(Cl)ccc34)nc12 (stereo not drawn) [Example I-163, 2-(6-Chloro-1-methyl-1H-indazol-3-yl)-5H-pyrrolo[2,3-b]pyrazine-7-carboxylic acid (5-hydroxy-1,5-dimethyl-hexyl)-amide]	80.7	356 nM
Cn1nc(-c2cnc3[nH]cc(C(=O)N[C@@H]4CCCN(CC(F)(F)F)C4)c3n2)c2ccc(Cl)cc21 [Example I-168, 2-(6-Chloro-1-methyl-1H-indazol-3-yl)-5H-pyrrolo[2,3-b]pyrazine-7-carboxylic acid [(R)-1-(2,2,2-trifluoro-ethyl)-piperidin-3-yl]-amide]	118	3710 nM
Cn1nc(-c2cnc3[nH]cc(C(=O)NC4CCCC(N)C4)c3n2)c2ccc(Cl)cc21 (stereo not drawn) [Example I-169, 2-(6-Chloro-1-methyl-1H-indazol-3-yl)-5H-pyrrolo[2,3-b]pyrazine-7-carboxylic acid (3-amino-cyclohexyl)-amide]	391	12 nM
COC[C@@H](NC(=O)c1c[nH]c2ncc(-c3nn(C)c4cc(F)ccc34)nc12)[C@@H](C)O [Example I-177, 2-(6-Fluoro-1-methyl-1H-indazol-3-yl)-5H-pyrrolo[2,3-b]pyrazine-7-carboxylic acid ((1R,2R)-2-hydroxy-1-methoxymethyl-propyl)-amide]	80.9	704 nM
COC[C@H](CC(C)C)NC(=O)c1c[nH]c2ncc(-c3nn(C)c4cc(F)ccc34)nc12 [Example I-179, 2-(6-Fluoro-1-methyl-1H-indazol-3-yl)-5H-pyrrolo[2,3-b]pyrazine-7-carboxylic acid ((S)-1-methoxymethyl-3-methyl-butyl)-amide]	5.91	149 nM
CC(CC(C)(C)O)NC(=O)c1c[nH]c2ncc(-c3nn(C)c4cc(F)ccc34)nc12 (stereo not drawn) [Example I-183, 2-(6-Fluoro-1-methyl-1H-indazol-3-yl)-5H-pyrrolo[2,3-b]pyrazine-7-carboxylic acid (3-hydroxy-1,3-dimethyl-butyl)-amide]	80	161 nM
COC[C@@H](NC(=O)c1c[nH]c2ncc(-c3nn(C)c4cc(F)ccc34)nc12)[C@H](C)O [Example I-188, 2-(6-Fluoro-1-methyl-1H-indazol-3-yl)-5H-pyrrolo[2,3-b]pyrazine-7-carboxylic acid ((1R,2S)-2-hydroxy-1-methoxymethyl-propyl)-amide]	31.7	168 nM
COC[C@@H](NC(=O)c1c[nH]c2ncc(-c3nn(C)c4cc(F)ccc34)nc12)[C@H](C)OC [Example I-189, 2-(6-Fluoro-1-methyl-1H-indazol-3-yl)-5H-pyrrolo[2,3-b]pyrazine-7-carboxylic acid ((1R,2S)-2-methoxy-1-methoxymethyl-propyl)-amide]	18.5	248 nM
Cn1nc(-c2cnc3[nH]cc(C(=O)NC(CO)C4CCCO4)c3n2)c2ccc(F)cc21 (stereo not drawn) [Example I-190, 2-(6-Fluoro-1-methyl-1H-indazol-3-yl)-5H-pyrrolo[2,3-b]pyrazine-7-carboxylic acid [2-hydroxy-1-(tetrahydro-furan-2-yl)-ethyl]-amide]	141	127 nM
CC(NC(=O)c1c[nH]c2ncc(-c3nn(C)c4cc(Cl)ccc34)nc12)c1nccn1C (stereo not drawn) [Example I-199, 2-(6-Chloro-1-methyl-1H-indazol-3-yl)-5H-pyrrolo[2,3-b]pyrazine-7-carboxylic acid [1-(1-methyl-1H-imidazol-2-yl)-ethyl]-amide]	178	64.4 nM
Cn1nc(-c2cnc3[nH]cc(C(=O)NC4(c5ccc(Br)cc5)CC4)c3n2)c2ccc(F)cc21 [Example I-208, 2-(6-Fluoro-1-methyl-1H-indazol-3-yl)-5H-pyrrolo[2,3-b]pyrazine-7-carboxylic acid [1-(4-bromo-phenyl)-cyclopropyl]-amide]	77.7	4020 nM and > 10000 nM
COC[C@H](C)NC(=O)c1c[nH]c2ncc(-n3cnc4cc(Cl)ccc43)nc12 [Example I-223, 2-(5-Chloro-benzoimidazol-1-yl)-5H-pyrrolo[2,3-b]pyrazine-7-carboxylic acid ((S)-2-methoxy-1-methyl-ethyl)-amide]	189	416 nM
COC[C@H](C)NC(=O)c1c[nH]c2ncc(-n3cnc4ccc(Cl)cc43)nc12 [Example I-224, 2-(6-Chloro-bcnzoimidazol-1-yl)-5H-pyrrolo[2,3-b]pyrazine-7-carboxylic acid ((S)-2-methoxy-1-methyl-ethyl)-amide]	346	357 nM
CC(NC(=O)c1c[nH]c2ncc(-c3nn(CCN4CCOCC4)c4cc(Cl)ccc34)nc12)c1cccnc1 (stereo not drawn) [Example I-245, 2-[6-Chloro-1-(2-morpholin-4-yl-ethyl)-1H-indazol-3-yl]-5H-pyrrolo[2,3-b]pyrazine-7-carboxylic acid (1-pyridin-3-yl-ethyl)-amide]	47.2	131 nM

Stronger by IC50 [1], values ahead:

IC50 [1] [nM]	IC50 [2]	Structure (SMILES)
5.46	324 nM	COC[C@H](C)NC(=O)c1c[nH]c2ncc(-c3nn(CCn4cccn4)c4cc(F)ccc34)nc12 [Example I-244, 2-[6-Fluoro-1-(2-pyrazol-1-yl-ethyl)-1H-indazol-3-yl]-5H-pyrrolo[2,3-b]pyrazine-7-carboxylic acid ((S)-2-methoxy-1-methyl-ethyl)-amide]
4.96	37.2 nM	CCCC(C)NC(=O)c1c[nH]c2ncc(-c3nn(C)c4cc(F)ccc34)nc12 (stereo not drawn) [Example I-184, 2-(6-Fluoro-1-methyl-1H-indazol-3-yl)-5H-pyrrolo[2,3-b]pyrazine-7-carboxylic acid (1-methyl-butyl)-amide]
4.65	13.5 nM	CC(O)C(C)NC(=O)c1c[nH]c2ncc(-c3nn(C)c4cc(Cl)ccc34)nc12 (stereo not drawn) [Example I-172, 2-(6-Chloro-1-methyl-1H-indazol-3-yl)-5H-pyrrolo[2,3-b]pyrazine-7-carboxylic acid (2-hydroxy-1-methyl-propyl)-amide]
2.88	95.1 nM	COC[C@H](C)NC(=O)c1c[nH]c2ncc(-c3nn(CCN(C)C)c4cc(Cl)ccc34)nc12 [Example I-234, 2-[6-Chloro-1-(2-dimethylamino-ethyl)-1H-indazol-3-yl]-5H-pyrrolo[2,3-b]pyrazine-7-carboxylic acid ((S)-2-methoxy-1-methyl-ethyl)-amide]
2.1	209 nM	COC[C@H](C)NC(=O)c1c[nH]c2ncc(-c3nn(CCN4CCCC4)c4cc(F)ccc34)nc12 [Example I-242, 2-[6-Fluoro-1-(2-pyrrolidin-1-yl-ethyl)-1H-indazol-3-yl]-5H-pyrrolo[2,3-b]pyrazine-7-carboxylic acid ((S)-2-methoxy-1-methyl-ethyl)-amide]
1.9	4.6 nM	CC[C@H](C)NC(=O)c1c[nH]c2ncc(-c3nn(C)c4cc(F)ccc34)nc12 [Example I-178, 2-(6-Fluoro-1-methyl-1H-indazol-3-yl)-5H-pyrrolo[2,3-b]pyrazine-7-carboxylic acid ((S)-sec-butyl)-amide]
1.88	135 nM	COC[C@H](CCS(C)(=O)=O)NC(=O)c1c[nH]c2ncc(-c3nn(C)c4cc(F)ccc34)nc12 [Example I-192, 2-(6-Fluoro-1-methyl-1H-indazol-3-yl)-5H-pyrrolo[2,3-b]pyrazine-7-carboxylic acid ((S)-3-methanesulfonyl-1-methoxymethyl-propyl)-amide]
1.61	120 nM	C[C@@H](O)[C@@H](NC(=O)c1c[nH]c2ncc(-c3nn(C)c4cc(F)ccc34)nc12)C(=O)N1CC(F)C1 [Example I-198, 2-(6-Fluoro-1-methyl-1H-indazol-3-yl)-5H-pyrrolo[2,3-b]pyrazine-7-carboxylic acid [(1R,2R)-1-(3-fluoro-azetidine-1-carbonyl)-2-hydroxy-propyl]-amide]
1.47	70.5 nM	COC[C@H](C)NC(=O)c1c[nH]c2ncc(-c3nn(CCN4CC[C@H](F)C4)c4cc(F)ccc34)nc12 [Example I-243, 2-{6-Fluoro-1-[2-((S)-3-fluoro-pyrrolidin-1-yl)-ethyl]-1H-indazol-3-yl}-5H-pyrrolo[2,3-b]pyrazine-7-carboxylic acid ((S)-2-methoxy-1-methyl-ethyl)-amide]
1.14	17 nM	COC[C@H](C)NC(=O)c1c[nH]c2ncc(-c3nn(C)c4cc(Cl)ccc34)nc12 [Example I-165, 2-(6-Chloro-1-methyl-1H-indazol-3-yl)-5H-pyrrolo[2,3-b]pyrazine-7-carboxylic acid ((S)-2-methoxy-1-methyl-ethyl)-amide]
0.795	140 nM	C[C@@H](COC(F)F)NC(=O)c1c[nH]c2ncc(-c3nn(C)c4cc(F)ccc34)nc12 [Example I-193, 2-(6-Fluoro-1-methyl-1H-indazol-3-yl)-5H-pyrrolo[2,3-b]pyrazine-7-carboxylic acid ((S)-2-difluoromethoxy-1-methyl-ethyl)-amide]
0.725	22.7 nM	COC[C@H](C)NC(=O)c1c[nH]c2ncc(-c3nn(Cc4ccc(N5CCOCC5)nc4)c4cc(F)ccc34)nc12 [Example I-237, 2-[6-Fluoro-1-(6-morpholin-4-yl-pyridin-3-ylmethyl)-1H-indazol-3-yl]-5H-pyrrolo[2,3-b]pyrazine-7-carboxylic acid ((S)-2-methoxy-1-methyl-ethyl)-amide]
0.41	20.3 nM	COC[C@H](C)NC(=O)c1c[nH]c2ncc(-c3nn(Cc4cccnc4)c4cc(F)ccc34)nc12 [Example I-241, 2-(6-Fluoro-1-pyridin-3-ylmethyl-1H-indazol-3-yl)-5H-pyrrolo[2,3-b]pyrazine-7-carboxylic acid ((S)-2-methoxy-1-methyl-ethyl)-amide]
